The text below walks through data of US10189786B2, “Antibacterial compounds” (Duke University, priority 2013, dated 2019).

In brackets after ≈: the same amount, converted by molar mass.

Holding throughout (type): cell-based
For one assay, the system named is E. coli W3110. Description: microbe, parasite or virus in culture. The conditions noted are these: wild-type E. coli W3110, 22 hours at 37° C., MTT; for MIC: Escherichia coli, W3110, 22 h.
The test system of a further assay is P. aeruginosa PAO1. The assay can be described thus: MIC assay, P. aeruginosa PAO1.
Another assay relates to N. gonorrhoeae H041. The assay can be described thus: Disk diffusion assay, N. gonorrhoeae H041. The conditions noted are these: disc 6 mm; for zone of inhibition at 0.2 µg/disc / zone of inhibition at 2 µg/disc / zone of inhibition at 20 µg/disc: Neisseria gonorrhoeae, read-out: diameter of the growth inhibition, H041; for zone of inhibition at 0.2 µg/disc: H041, 0.2 μg per disc; for zone of inhibition at 2 µg/disc: H041, 2.0 μg per disc; for zone of inhibition at 20 µg/disc: H041, 20 μg per disc. The method, then: (§1) An assay was performed on two strains of Acinetobacter Baumannii: antibiotic susceptible strain (Sus. A.b. Isolate), and multidrug-resistant strains (MDR A.b. Isolate). […] Activity is measured as the diameter (in mm) of the growth inhibition.
On the technique in general: A growth-free zone around the sample is the usual read-out of agar diffusion tests.

Assay [1] has as its system N. gonorrhoeae 35/02 (drug-resistant strain). The assay can be described thus: Disk diffusion assay, N. gonorrhoeae 35/02. The conditions noted are these: disc 6 mm; for zone of inhibition at 0.2 µg/disc / zone of inhibition at 2 µg/disc / zone of inhibition at 20 µg/disc: Neisseria gonorrhoeae, read-out: diameter of the growth inhibition, 35/02. The protocol:
as §1

For assay [2], the system named is N. gonorrhoeae F89 (high-level cefixime and ceftriaxone resistance). The assay can be described thus: Disk diffusion assay, N. gonorrhoeae F89. The note with it: disc 6 mm; for zone of inhibition at 0.2 µg/disc / zone of inhibition at 2 µg/disc / zone of inhibition at 20 µg/disc: Neisseria gonorrhoeae, read-out: diameter of the growth inhibition, F89. The protocol: as §1

Assay [3] relates to N. gonorrhoeae FA19 (a drug-sensitive strain). The assay can be described thus: Disk diffusion assay, N. gonorrhoeae FA19. The note with it: disc 6 mm; for zone of inhibition at 0.2 µg/disc / zone of inhibition at 2 µg/disc / zone of inhibition at 20 µg/disc: Neisseria gonorrhoeae, read-out: diameter of the growth inhibition, FA19. The method, then:
as §1

`CC(NCCc1ccc(-c2ccccc2)cc1)(C(=O)NO)C(C)(O)C(F)F.Cl` (centres unmarked) [Example 136]: the “MIC E. coli W3110” value in the assay with E. coli W3110 was over 40 µg/mL. The “MIC P. aeruginosa PAO1” value in the assay on P. aeruginosa PAO1 was over 40 µg/mL.
In the case of `CC(NCCCc1ccc(-c2ccccc2)cc1)(C(=O)NO)C(O)(CF)CF` (centres unmarked) [Example 148], the zone of inhibition at 0.2 µg/disc in the assay with N. gonorrhoeae H041 was 9 mm; in assay [1] (0.2 μg per disc), 0 mm; in assay [2] (0.2 μg per disc), 13 mm; in assay [3] (0.2 μg per disc), 12 mm. Moreover, the zone of inhibition at 2 µg/disc in the assay with N. gonorrhoeae H041 came to 15 mm; in assay [1] (2.0 μg per disc) it was 17 mm; in assay [2] (2.0 μg per disc) it was 19 mm; in assay [3] (2.0 μg per disc) it was 19 mm. Moreover, the zone of inhibition at 20 µg/disc with N. gonorrhoeae H041 was 24 mm; in assay [1] (20 μg per disc), 24 mm; in assay [2] (20 μg per disc), 27 mm; in assay [3] (20 μg per disc) it was 27 mm.
The molecule `C[C@@](O)(C(F)F)[C@H](NCCCc1ccc(-c2ccc(CN3CCOCC3)cc2)cc1)C(=O)NO` [Example 138] registered an MIC against E. coli W3110 of 3 µg/mL (≈ 6.28 µM).
Take `C[C@@](O)(C(F)F)[C@H](NCc1ccc2cc(-c3ccccc3)ccc2c1)C(=O)NO` [Example 149]: the zone of inhibition at 0.2 µg/disc is 10 mm with N. gonorrhoeae H041, 11 mm in assay [1] (0.2 μg per disc), 19 mm in assay [2] (0.2 μg per disc) and 15 mm in assay [3] (0.2 μg per disc). Moreover, the zone of inhibition at 2 µg/disc was found to be 24 mm in the assay on N. gonorrhoeae H041, 22 mm in assay [1] (2.0 μg per disc), 24 mm in assay [2] (2.0 μg per disc) and 22 mm in assay [3] (2.0 μg per disc). The zone of inhibition at 20 µg/disc came out at 27 mm in the assay with N. gonorrhoeae H041, 25 mm in assay [1] (20 μg per disc), 30 mm in assay [2] (20 μg per disc) and 26 mm in assay [3] (20 μg per disc).
Regarding `C[C@@](O)(C(F)F)[C@H](NC/C=C/c1ccc(-c2ccccc2)cc1)C(=O)NO` [Example 147], the zone of inhibition at 0.2 µg/disc in the assay with N. gonorrhoeae H041 was found to be 14 mm; in assay [1] (0.2 μg per disc), 17 mm; in assay [2] (0.2 μg per disc), 28 mm; in assay [3] (0.2 μg per disc), 22 mm. Besides, the zone of inhibition at 2 µg/disc is 30 mm in the assay on N. gonorrhoeae H041, 28 mm in assay [1] (2.0 μg per disc), 33 mm in assay [2] (2.0 μg per disc) and 28 mm in assay [3] (2.0 μg per disc). Further, the zone of inhibition at 20 µg/disc in the assay with N. gonorrhoeae H041 was 35 mm; in assay [1] (20 μg per disc) it was 34 mm; in assay [2] (20 μg per disc) it was 38 mm; in assay [3] (20 μg per disc), 32 mm.
Turning to `C[C@@](O)(C(F)F)[C@H](NCc1ccc(-c2ccccc2)cc1O)C(=O)NO` [Example 141], the zone of inhibition at 0.2 µg/disc in the assay with N. gonorrhoeae H041 was determined as 0 mm; in assay [1] (0.2 μg per disc), 7 mm; in assay [2] (0.2 μg per disc), 10 mm; in assay [3] (0.2 μg per disc), 12 mm. In addition, the zone of inhibition at 2 µg/disc with N. gonorrhoeae H041 came out at 15 mm; in assay [1] (2.0 μg per disc), 16 mm; in assay [2] (2.0 μg per disc), 22 mm; in assay [3] (2.0 μg per disc), 21 mm. For the same molecule, the zone of inhibition at 20 µg/disc with N. gonorrhoeae H041 worked out at 22 mm; in assay [1] (20 μg per disc), 25 mm; in assay [2] (20 μg per disc), 30 mm; in assay [3] (20 μg per disc) it was 28 mm. In the assay with E. coli W3110, this molecule had an MIC of 50 µg/mL (≈ 136 µM).
`CC(NCCc1ccc(-c2ccccc2)cc1)(C(=O)NO)C(C)(O)C(F)F` (centres unmarked) [Example 12, 2-(2-(biphenyl-4-yl)ethylamino)-4,4-difluoro-N,3-dihydroxy-2,3-dimethylbutanamide]: the MIC against E. coli W3110 is over 40 µg/mL; against P. aeruginosa PAO1 (Pseudomonas aeruginosa, PAO1, P. aeruginosa PAO1) it was over 40 µg/mL. Moreover, the zone of inhibition at 2 µg/disc in assay [3] (2.0 μg per disc) was under 19 mm.
Consider `CC(NCCCc1ccc(-c2ccccc2)cc1)(C(=O)NO)C(C)(O)C(F)F.Cl` (single isomer, unassigned) [Example 135], for which the figures for the “diameter of the growth inhibition, H041” value in the assay with N. gonorrhoeae H041 (0.2 μg per disc), in the assay with N. gonorrhoeae H041 (2.0 μg per disc) and in the assay with N. gonorrhoeae H041 (20 μg per disc) were 8 mm, 14 mm and 23 mm, respectively. Moreover, the “MIC E. coli W3110” value against E. coli W3110 was 10 µg/mL. The “diameter of the growth inhibition, 35/02” value is recorded as 8 mm in assay [1] (0.2 μg per disc), 14 mm in assay [1] (2.0 μg per disc) and 19 mm in assay [1] (20 μg per disc). Besides, in the assay on P. aeruginosa PAO1, the “MIC P. aeruginosa PAO1” value is 20 µg/mL. The results for the “diameter of the growth inhibition, F89” value in assay [2] (0.2 μg per disc), in assay [2] (2.0 μg per disc) and in assay [2] (20 μg per disc) were 15 mm, 27 mm and 30 mm, respectively. Also, the “diameter of the growth inhibition, FA19” value in assay [3] (0.2 μg per disc) was found to be 8 mm; in assay [3] (2.0 μg per disc) it was 19 mm; in assay [3] (20 μg per disc), 26 mm.
As to `COc1ccc(-c2ccc(CCCN[C@H](C(=O)NO)[C@](C)(O)C(F)F)cc2)cc1` [Example 137], the MIC in the assay on E. coli W3110 is 12 µg/mL (≈ 29.4 µM).
As to `COc1ccc(-c2ccn(CCCNC(C)(C(=O)NO)C(C)(O)CF)c(=O)c2)cc1` (centres unmarked) [Example 140], the MIC against E. coli W3110 is 100 µg/mL (≈ 237 µM). Also, in assay [3] (2.0 μg per disc), the zone of inhibition at 2 µg/disc was 13 mm. In addition, in assay [3] (20 μg per disc), the zone of inhibition at 20 µg/disc turned out to be 22 mm.
In the case of `CN1CCN(Cc2ccc(-c3ccc(CCCN[C@H](C(=O)NO)[C@](C)(O)C(F)F)cc3)cc2)CC1` [Example 144], the zone of inhibition at 0.2 µg/disc (with N. gonorrhoeae H041; in assay [1] (0.2 μg per disc); in assay [2] (0.2 μg per disc); in assay [3] (0.2 μg per disc)) was 0 mm throughout. In addition, the zone of inhibition at 2 µg/disc (in the assay on N. gonorrhoeae H041; in assay [1] (2.0 μg per disc); in assay [2] (2.0 μg per disc); in assay [3] (2.0 μg per disc)) was 0 mm in each case. The zone of inhibition at 20 µg/disc (in the assay with N. gonorrhoeae H041; in assay [1] (20 μg per disc); in assay [2] (20 μg per disc); in assay [3] (20 μg per disc)) was 0 mm throughout. Further, the MIC in the assay on E. coli W3110 is 50 µg/mL (≈ 102 µM).
`COc1ccc(-c2ccc(CN[C@H](C(=O)NO)[C@](C)(O)C(F)F)cc2)cc1` [Example 142]: the zone of inhibition at 0.2 µg/disc (with N. gonorrhoeae H041; in assay [1] (0.2 μg per disc); in assay [2] (0.2 μg per disc); in assay [3] (0.2 μg per disc)) was 0 mm in each case. Besides, the zone of inhibition at 2 µg/disc in the assay with N. gonorrhoeae H041 was found to be 8 mm; in assay [1] (2.0 μg per disc), 11 mm; in assay [2] (2.0 μg per disc) it was 16 mm; in assay [3] (2.0 μg per disc) it was 16 mm. For the same molecule, the zone of inhibition at 20 µg/disc came to 17 mm with N. gonorrhoeae H041, 20 mm in assay [1] (20 μg per disc), 24 mm in assay [2] (20 μg per disc) and 21 mm in assay [3] (20 μg per disc). This molecule also displayed an MIC against E. coli W3110 of 100 µg/mL (≈ 263 µM).
With `COc1cc(-c2ccccc2)ccc1CN[C@H](C(=O)NO)[C@](C)(O)C(F)F` [Example 146], the zone of inhibition at 0.2 µg/disc (with N. gonorrhoeae H041; in assay [1] (0.2 μg per disc); in assay [2] (0.2 μg per disc); in assay [3] (0.2 μg per disc)) was 0 mm in each case. For the same molecule, the zone of inhibition at 2 µg/disc with N. gonorrhoeae H041 amounted to 8 mm; in assay [1] (2.0 μg per disc), 0 mm; in assay [2] (2.0 μg per disc) it was 11 mm; in assay [3] (2.0 μg per disc) it was 10 mm. For the same molecule, the zone of inhibition at 20 µg/disc was 19 mm with N. gonorrhoeae H041, 16 mm in assay [1] (20 μg per disc), 27 mm in assay [2] (20 μg per disc) and 25 mm in assay [3] (20 μg per disc).
With `C[C@@](O)(C(F)F)[C@H](NCc1ccc(-c2ccc(OCCN3CCOCC3)cc2)cc1)C(=O)NO` [Example 145], the zone of inhibition at 0.2 µg/disc (in the assay with N. gonorrhoeae H041; in assay [1] (0.2 μg per disc); in assay [2] (0.2 μg per disc); in assay [3] (0.2 μg per disc)) was 0 mm throughout. Moreover, the zone of inhibition at 2 µg/disc was determined as 7 mm in the assay on N. gonorrhoeae H041, 0 mm in assay [1] (2.0 μg per disc), 7 mm in assay [2] (2.0 μg per disc) and 0 mm in assay [3] (2.0 μg per disc). In addition, the zone of inhibition at 20 µg/disc in the assay on N. gonorrhoeae H041 worked out at 11 mm; in assay [1] (20 μg per disc), 12 mm; in assay [2] (20 μg per disc), 21 mm; in assay [3] (20 μg per disc), 14 mm. The same molecule displayed an MIC against E. coli W3110 of 25 µg/mL (≈ 52.1 µM).
As for `CC(O)(CF)C(C)(NCCCc1ccc(-c2ccccc2)cc1)C(=O)NO.Cl` (centres unmarked) [Example 139], the “diameter of the growth inhibition, H041” value in the assay with N. gonorrhoeae H041 (0.2 μg per disc) is listed as 7 mm; with N. gonorrhoeae H041 (2.0 μg per disc), 14 mm; in the assay with N. gonorrhoeae H041 (20 μg per disc) it was 21 mm. Besides, in the assay with E. coli W3110, the “MIC E. coli W3110” value turned out to be 50 µg/mL. In addition, the “diameter of the growth inhibition, 35/02” value in assay [1] (0.2 μg per disc) amounted to 7 mm; in assay [1] (2.0 μg per disc), 15 mm; in assay [1] (20 μg per disc) it was 22 mm. For the same molecule, the “diameter of the growth inhibition, F89” value in assay [2] (0.2 μg per disc) was found to be 11 mm; in assay [2] (2.0 μg per disc) it was 20 mm; in assay [2] (20 μg per disc), 28 mm. In addition, the “diameter of the growth inhibition, FA19” value in assay [3] (0.2 μg per disc) is given as 11 mm; in assay [3] (2.0 μg per disc) it was 20 mm; in assay [3] (20 μg per disc) it was 24 mm.
